# Numbered stars: 1 amine (or outer) side, 2 acyl side, 3 side chain; on linkers, the order of the positions; unused ones are H or OH. Square brackets hold non-standard residues; d marks the D form. Side chains are listed from the residue outwards. Peptide text beside a SMILES is read from it. * marks the point of attachment. DOTA = O=C(O)CN1CCN(CC(=O)O)CCN(CC(=O)*)CCN(CC(=O)O)CC1; Gly(N-(3-F-4-Me-benzyl)) = Cc1ccc(CNCC(=O)*)cc1F; Butanoyl(4-(4-I-phenyl)) = O=C(CCCc1ccc(I)cc1)*; Bpa = N[C@@H](Cc1ccc(C(=O)c2ccccc2)cc1)C(=O)O; Api(1-amidino) = N=C(N)N1CCC(N)(C(=O)O)CC1; X3 = CNC(=N)N1CCC(N[*:1])(C(=O)[*:2])CC1; Phe(3-F) = N[C@@H](Cc1cccc(F)c1)C(=O)O; γGlu = O=C(O)[C@H](CCC(=O)[*:2])N[*:1]; 2Nal = N[C@@H](Cc1ccc2ccccc2c1)C(=O)O; d2Nal = N[C@H](Cc1ccc2ccccc2c1)C(=O)O; Palmitoyl = CCCCCCCCCCCCCCCC(=O)*; X1 = O=C(CN1CCC(N[*:1])CC1)[*:2]; dCya = N[C@H](CS(=O)(=O)O)C(=O)O; 4Pal = N[C@@H](Cc1ccncc1)C(=O)O; d4Pal = N[C@H](Cc1ccncc1)C(=O)O; Cha = N[C@@H](CC1CCCCC1)C(=O)O; PEG4 = NCCOCCOCCOCCOCCC(=O)O; 4Amb = NCc1ccc(C(=O)O)cc1; Api = NC1(C(=O)O)CCNCC1; PEG2 = NCCOCCOCCC(=O)O; Ahx = NCCCCCC(=O)O; azaGly = NNC(=O)O
# Target: human kisspeptin receptor (Homo sapiens (Human), UniProt Q969F8)
# Sequence (Q969F8 whole entry): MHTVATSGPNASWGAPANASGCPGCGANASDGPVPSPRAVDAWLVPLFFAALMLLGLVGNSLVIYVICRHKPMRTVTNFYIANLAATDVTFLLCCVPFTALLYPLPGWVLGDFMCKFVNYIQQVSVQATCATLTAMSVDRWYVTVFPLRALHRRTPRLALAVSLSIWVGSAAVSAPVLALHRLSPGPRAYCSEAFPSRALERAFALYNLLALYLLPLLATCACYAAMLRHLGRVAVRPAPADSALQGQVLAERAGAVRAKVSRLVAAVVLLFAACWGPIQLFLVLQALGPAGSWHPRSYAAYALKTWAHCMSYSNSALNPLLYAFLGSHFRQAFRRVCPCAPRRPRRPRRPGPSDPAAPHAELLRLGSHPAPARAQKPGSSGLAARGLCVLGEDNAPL
# Assay: Human KISS1R binding assay (membrane competition binding)
# Conditions: 90 min at room temperature; competition with 0.2 nM [125I]-metastin (45-54); Flp-In T-Rex 293 kisspeptin membranes; metal complexes nonradioactive Ga, In, Lu; read-out: hKiSSR Binding Ki (90 min)
# Method in brief: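 Membranes from tetracycline-induced (48 h) Flp-In T-Rex 293 cells expressing receptor, 5–10 μg, incubated 90 min at room temperature with 0.2 nM [125I]-metastin (45-54) and competitor (typically 0–10,000 nM) in Tris/Mg/Ca/EGTA/0.1% BSA, pH 7.4. Filtration, washing, counting; Ki by non-linear regression.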
row,Compound,Ki [nM]
1,CC(C)C[C@H](NC(=O)[C@H](Cc1ccccc1)NC(=O)[C@H](CC(N)=O)NC(=O)[C@H](CCCNC(=N)N)NC(=O)[C@H](CC(N)=O)NC(=O)[C@@H](NC(=O)CCCCCNC(=O)CN1CCN(CC(=O)O)CCN(CC(=O)O)CCN(CC(=O)O)CC1)[C@@H](C)O)C(=O)NC1(C(=O)N[C@@H](Cc2ccccc2)C(N)=O)CCN(C(=N)N)CC1 [Compound 199] ({DOTA-Ahx}-TNRNFL[Api(1-amidino)]F-NH2),> 100
2,CC(C)C[C@H](NC(=O)NNC(=O)[C@H](Cc1ccccc1)NC(=O)c1ccc(CNC(=O)[C@H](Cc2ccc3ccccc3c2)NC(=O)[C@@H](Cc2ccc(O)cc2)NC(=O)CN2CCN(CC(=O)O)CCN(CC(=O)O)CCN(CC(=O)O)CC2)cc1)C(=O)NC1(C(=O)N[C@@H](Cc2ccccc2)C(N)=O)CCN(C(=N)N)CC1 [Compound 288] ({DOTA}-[dY][2Nal][4Amb]F[azaGly]L[Api(1-amidino)]F-NH2),< 10
3,Cc1ccc(CNCC(=O)N2CCC(NC(=O)[C@H](CC(C)C)NC(=O)NNC(=O)[C@H](Cc3ccccc3)NC(=O)[C@@H](NC(=O)[C@H](CC(N)=O)NC(=O)[C@@H](Cc3c[nH]c4ccccc34)NC(=O)[C@@H](Cc3ccc(O)cc3)NC(=O)CCCCCNC(=O)[C@@H](CS(=O)(=O)O)NC(=O)CN3CCN(CC(=O)O)CCN(CC(=O)O)CCN(CC(=O)O)CC3)[C@@H](C)O)(C(=O)N[C@@H](Cc3c[nH]c4ccccc34)C(N)=O)CC2)cc1F [Compound 115] ({DOTA}-[dCya][Ahx][dY][dW]NTF[azaGly]L[Api](Gly(N-(3-F-4-Me-benzyl)))W-NH2),< 10
4,CC(C)C[C@H](NC(=O)NNC(=O)[C@H](Cc1ccccc1)NC(=O)[C@@H](NC(=O)[C@H](CC(N)=O)NC(=O)[C@@H](Cc1ccc2ccccc2c1)NC(=O)[C@@H](Cc1ccc(O)cc1)NC(=O)CCCCCNC(=O)CN1CCN(CC(=O)O)CCN(CC(=O)O)CCN(CC(=O)O)CC1)[C@@H](C)O)C(=O)NC1(C(=O)N[C@@H](Cc2ccc(O)cc2)C(N)=O)CCN(C(=N)N)CC1 [Compound 185] ({DOTA-Ahx}-[dY][d2Nal]NTF[azaGly]L[Api(1-amidino)]Y-NH2),< 10
5,Cc1ccc(CNCC(=O)N2CCC(NC(=O)c3cc(OCCNC(=O)[C@H](Cc4ccccc4)NC(=O)CN4CCC(NC(=O)CN5CCN(CC(=O)O)CCN(CC(=O)O)CCN(CC(=O)O)CC5)CC4)cc(-c4ccccc4)c3)(C(=O)N[C@@H](Cc3c[nH]c4ccccc34)C(N)=O)CC2)cc1F [Compound 215],> 100
6,CCCCCCCCCCCCCCCC(=O)N[C@@H](CCC(=O)N[C@@H](CCCCNC(=O)CCOCCOCCOCCOCCNC(=O)CN1CCN(CC(=O)O)CCN(CC(=O)O)CCN(CC(=O)O)CC1)C(=O)N[C@H](Cc1ccc(O)cc1)C(=O)N[C@H](Cc1c[nH]c2ccccc12)C(=O)N[C@@H](CC(N)=O)C(=O)N[C@H](C(=O)N[C@@H](Cc1ccccc1)C(=O)NNC(=O)N[C@@H](CC(C)C)C(=O)NC1(C(=O)N[C@@H](Cc2c[nH]c3ccccc23)C(N)=O)CCN(C(=O)CNCc2ccc(C)c(F)c2)CC1)[C@@H](C)O)C(=O)O [Compound 119] ({Palmitoyl-γGlu}-K([PEG4-DOTA])[dY][dW]NTF[azaGly]L[Api](Gly(N-(3-F-4-Me-benzyl)))W-NH2),< 10
7,Cc1ccc(CNCC(=O)N2CCC(NC(=O)[C@H](CC(C)C)n3cc([C@H](Cc4ccccc4)NC(=O)CCCCCNC(=O)CN4CCN(CC(=O)O)CCN(CC(=O)O)CCN(CC(=O)O)CC4)nn3)(C(=O)N[C@@H](Cc3c[nH]c4ccccc34)C(N)=O)CC2)cc1F [Compound 9],< 10
8,Cc1ccc(CNCC(=O)N2CCC(NC(=O)[C@H](CC(C)C)NC(=O)NNC(=O)[C@H](Cc3cccc(F)c3)NC(=O)[C@@H](NC(=O)[C@H](CC(N)=O)NC(=O)[C@H](Cc3c[nH]c4ccccc34)NC(=O)[C@@H](Cc3ccc(O)cc3)NC(=O)CCCCCNC(=O)CN3CCN(CC(=O)O)CCN(CC(=O)O)CCN(CC(=O)O)CC3)[C@@H](C)O)(C(=O)N[C@@H](Cc3c[nH]c4ccccc34)C(N)=O)CC2)cc1F [Compound 35] ({DOTA-Ahx}-[dY]WNT[Phe(3-F)][azaGly]L[Api](Gly(N-(3-F-4-Me-benzyl)))W-NH2),< 10
9,Cc1ccc(CNCC(=O)N2CCC(NC(=O)[C@H](CC(C)C)NC(=O)NNC(=O)[C@H](Cc3ccccc3)NC(=O)[C@@H](NC(=O)[C@H](CC(N)=O)NC(=O)[C@@H](Cc3ccncc3)NC(=O)[C@@H](Cc3ccc(O)cc3)NC(=O)CN3CCC(NC(=O)CN4CCN(CC(=O)O)CCN(CC(=O)O)CCN(CC(=O)O)CC4)CC3)[C@@H](C)O)(C(=O)N[C@@H](Cc3c[nH]c4ccccc34)C(N)=O)CC2)cc1F [Compound 29] ({DOTA}-[X1][dY][d4Pal]NTF[azaGly]L[Api](Gly(N-(3-F-4-Me-benzyl)))W-NH2),< 10
10,Cc1ccc(CNCC(=O)N2CCC(NC(=O)[C@H](CC(C)C)NC(=O)NNC(=O)[C@H](Cc3ccccc3)NC(=O)[C@@H](NC(=O)[C@H](CC(N)=O)NC(=O)[C@@H](Cc3c[nH]c4ccccc34)NC(=O)[C@@H](Cc3c[nH]cn3)NC(=O)[C@@H](Cc3ccc(O)cc3)NC(=O)CCCCCNC(=O)CN3CCN(CC(=O)O)CCN(CC(=O)O)CCN(CC(=O)O)CC3)[C@@H](C)O)(C(=O)N[C@@H](Cc3ccncc3)C(N)=O)CC2)cc1F [Compound 107] ({DOTA-Ahx}-[dY][dH][dW]NTF[azaGly]L[Api](Gly(N-(3-F-4-Me-benzyl)))[4Pal]-NH2),< 10
11,Cc1ccc(CNCC(=O)N2CCC(NC(=O)[C@H](CC(C)C)NC(=O)NNC(=O)[C@H](Cc3ccccc3)NC(=O)[C@@H](NC(=O)[C@H](CC(N)=O)NC(=O)[C@@H](Cc3ccc(O)cc3)NC(=O)CCCCCNC(=O)CN3CCN(CC(=O)O)CCN(CC(=O)O)CCN(CC(=O)O)CC3)[C@@H](C)O)(C(=O)N[C@@H](Cc3ccncc3)C(N)=O)CC2)cc1F [Compound 291] ({DOTA-Ahx}-[dY]NTF[azaGly]L[Api](Gly(N-(3-F-4-Me-benzyl)))[4Pal]-NH2),< 10
12,CC(C)C[C@H](NC(=O)NNC(=O)[C@H](Cc1ccccc1)NC(=O)[C@@H](NC(=O)[C@H](CC(N)=O)NC(=O)[C@H](Cc1ccc(C(=O)c2ccccc2)cc1)NC(=O)[C@@H](Cc1ccc(O)cc1)NC(=O)CCCCCNC(=O)CN1CCN(CC(=O)O)CCN(CC(=O)O)CCN(CC(=O)O)CC1)[C@@H](C)O)C(=O)NC1(C(=O)N[C@@H](Cc2c[nH]c3ccccc23)C(N)=O)CCN(C(=N)N)CC1 [Compound 183] ({DOTA-Ahx}-[dY][Bpa]NTF[azaGly]L[Api(1-amidino)]W-NH2),< 10

# Results, then the compound that gave them:
row,Ki [nM],Compound
1,> 100,CNC(=N)N1CCC(NC(=O)[C@H](CC(C)C)NC(=O)NNC(=O)[C@H](Cc2ccccc2)NC(=O)[C@@H](NC(=O)[C@H](CC(N)=O)NC(=O)[C@@H](Cc2ccc3ccccc3c2)NC(=O)[C@@H](Cc2ccc(O)cc2)NC(=O)CCCCCNC(=O)CN2CCN(CC(=O)O)CCN(CC(=O)O)CCN(CC(=O)O)CC2)[C@@H](C)O)(C(=O)N[C@H](Cc2c[nH]c3ccccc23)C(N)=O)CC1 [Compound 319] ({DOTA-Ahx}-[dY][d2Nal]NTF[azaGly]L[X3][dW]-NH2)
2,< 10,Cc1ccc(CNCC(=O)N2CCC(NC(=O)[C@H](CC(C)C)NC(=O)NNC(=O)[C@H](Cc3ccccc3)NC(=O)[C@@H](NC(=O)[C@H](CC(N)=O)NC(=O)[C@@H](Cc3ccc4ccccc4c3)NC(=O)[C@@H](Cc3ccc(O)cc3)NC(=O)CNC(=O)CN3CCN(CC(=O)O)CCN(CC(=O)O)CCN(CC(=O)O)CC3)[C@@H](C)O)(C(=O)N[C@@H](Cc3c[nH]c4ccccc34)C(N)=O)CC2)cc1F [Compound 365] ({DOTA}-G[dY][d2Nal]NTF[azaGly]L[Api](Gly(N-(3-F-4-Me-benzyl)))W-NH2)
3,< 10,CC(C)C[C@H](NC(=O)NNC(=O)[C@H](Cc1ccccc1)NC(=O)[C@@H](NC(=O)[C@H](CC(N)=O)NC(=O)[C@@H](Cc1ccc2ccccc2c1)NC(=O)CN1CCN(CC(=O)O)CCN(CC(=O)O)CCN(CC(=O)O)CC1)[C@@H](C)O)C(=O)NC1(C(=O)N[C@@H](Cc2ccccc2)C(N)=O)CCN(C(=N)N)CC1 [Compound 302] ({DOTA}-[d2Nal]NTF[azaGly]L[Api(1-amidino)]F-NH2)
4,< 10,CC(C)C[C@H](NC(=O)NNC(=O)[C@H](Cc1ccccc1)NC(=O)[C@@H](NC(=O)[C@H](CC(N)=O)NC(=O)[C@@H](Cc1ccc2ccccc2c1)NC(=O)[C@@H](Cc1ccc(O)cc1)NC(=O)[C@@H](CCCCNC(=O)CCCc1ccc(I)cc1)NC(=O)CCCCCNC(=O)CN1CCN(CC(=O)O)CCN(CC(=O)O)CCN(CC(=O)O)CC1)[C@@H](C)O)C(=O)NC1(C(=O)N[C@@H](Cc2c[nH]c3ccccc23)C(N)=O)CCN(C(=N)N)CC1 [Compound 336] ({DOTA-Ahx}-[dK](Butanoyl(4-(4-I-phenyl)))[dY][d2Nal]NTF[azaGly]L[Api(1-amidino)]W-NH2)
5,< 10,Cc1ccc(CNCC(=O)N2CCC(NC(=O)[C@H](CC(C)C)NC(=O)NNC(=O)[C@H](CC3CCCCC3)NC(=O)[C@@H](NC(=O)[C@H](CC(N)=O)NC(=O)[C@@H](Cc3c[nH]c4ccccc34)NC(=O)[C@H](N)Cc3ccc(O)cc3)[C@@H](C)O)(C(=O)N[C@@H](Cc3c[nH]c4ccccc34)C(N)=O)CC2)cc1F [Compound 404] (H-[dY][dW]NT[Cha][azaGly]L[Api](Gly(N-(3-F-4-Me-benzyl)))W-NH2)
6,< 10,Cc1ccc(CNCC(=O)N2CCC(NC(=O)[C@H](CC(C)C)NC(=O)NNC(=O)[C@H](Cc3ccccc3)NC(=O)[C@@H](NC(=O)[C@H](CC(N)=O)NC(=O)[C@@H](Cc3c[nH]c4ccccc34)NC(=O)[C@@H](Cc3ccc(O)cc3)NC(=O)CCOCCOCCNC(=O)CN3CCN(CC(=O)O)CCN(CC(=O)O)CCN(CC(=O)O)CC3)[C@@H](C)O)(C(=O)N[C@@H](Cc3c[nH]c4ccccc34)C(N)=O)CC2)cc1F [Compound 382] ({DOTA-PEG2}-[dY][dW]NTF[azaGly]L[Api](Gly(N-(3-F-4-Me-benzyl)))W-NH2)
